#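 Compound exposure: 48 hours, 5 concentrations, 96-well plates. GI50 marks 50% less growth.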 Calls of active or inactive are those of the source. Rule as the data show it: active = GI50 up to about 1.1 µM and inactive = higher.
# Experiments:
# Assay in all cases: NCI tumour cell line growth inhibition, 48 h
# [1] = test system: 786-0
# [2] = test system: DU-145
# [3] = test system: EKVX
# [4] = test system: HCT-15
# [5] = test system: HOP-62
# [6] = test system: IGROV-1
# [7] = test system: LOX IMVI
# [8] = test system: MCF7
# [9] = test system: Malme-3M
# [10] = test system: NCI-H23
# [11] = test system: NCI/ADR-RES
# [12] = test system: OVCAR-3
# [13] = test system: OVCAR-5
# [14] = test system: OVCAR-8
# [15] = test system: RPMI-8226
# [16] = test system: RXF 393
# [17] = test system: SK-MEL-28
# [18] = test system: SW-620
# [19] = test system: UACC-257
# [20] = test system: UO-31
SMILES,GI50 [1],GI50 [2],GI50 [3],GI50 [4] [µM],GI50 [5],GI50 [6],GI50 [7],GI50 [8],GI50 [9],GI50 [10],GI50 [11],GI50 [12],GI50 [13],GI50 [14],GI50 [15],GI50 [16],GI50 [17],GI50 [18],GI50 [19],GI50 [20]
CCN(CC)C(=S)N/N=C(/c1ccccc1)c1ccccn1,0.145 µM (active),0.402 µM (active),0.583 µM (active),0.126,0.292 µM (active),0.195 µM (active),0.2 µM (active),0.0867 µM (active),0.929 µM (active),0.267 µM (active),0.27 µM (active),0.0288 µM (active),0.238 µM (active),0.0362 µM (active),0.11 µM (active),0.277 µM (active),0.767 µM (active),0.121 µM (active),0.107 µM (active),0.459 µM (active)
CCOC1CCN(C(=O)c2ccccc2)O1 (stereo not given),> 10 µM (inactive),> 10 µM (inactive),> 10 µM (inactive),> 10,> 10 µM (inactive),> 10 µM (inactive),> 10 µM (inactive),> 10 µM (inactive),> 10 µM (inactive),> 10 µM (inactive),> 10 µM (inactive),> 10 µM (inactive),> 10 µM (inactive),> 10 µM (inactive),> 10 µM (inactive),> 10 µM (inactive),> 10 µM (inactive),> 10 µM (inactive),> 10 µM (inactive),> 10 µM (inactive)
Cc1cccc2c(NCCCN(C)C)c3c([N+](=O)[O-])ccc(C)c3nc12,0.0689 µM (active),0.0887 µM (active),0.0855 µM (active),0.0435,0.047 µM (active),0.0574 µM (active),0.197 µM (active),< 0.0161 µM (active),0.175 µM (active),0.034 µM (active),0.337 µM (active),0.109 µM (active),0.264 µM (active),0.206 µM (active),0.19 µM (active),0.0647 µM (active),2.32 µM (inactive),0.0659 µM (active),0.192 µM (active),0.216 µM (active)

# From ChEMBL document CHEMBL1201862, “PubChem BioAssay data set” (2004)
